Experimental data from ChEMBL document CHEMBL5214930, “Discovery of the First Selective IDO2 Inhibitor As Novel Immunotherapeutic Avenues for Rheumatoid Arthritis” (J Med Chem, 2022).
pEC50, pIC50: −log10 of the molar value. Activity calls are given as the source filed them. No cut-off for these calls is given here.

Tests used:
[1] = Cmax in Sprague-Dawley rat at 10 mg/kg, po; format: ADME, organism-based; set-up: dose 10 mg/kg, route po; details: in vivo
[2] = Metabolic stability in human liver microsome assessed as binding constant; format: ADME; details: microsomes
Rattus norvegicus [3] = assay: Antiarthritic activity against adjuvant arthritis-induced Sprague-Dawley rat model assessed as decrease in TNF-alpha level at 30 to 120 mg/kg, po administered from day 21 to 36 post CFA injection and measured every 3 days; format: functional, organism-based; details: dose 30-120 mg/kg, time 15.0 day
Mus musculus [4] = assay: Antiarthritic activity against collagen-induced arthritis DBA/1J mouse model assessed as decrease in IL-33 level at 50 to 100 mg/kg, ip administered from day 57 to 74 post CFA injection and measured every 3 days by immunohistochemical staining method; format: functional, organism-based; details: dose 50-100 mg/kg, time 17.0 day
Rattus norvegicus [5] = assay: Antiarthritic activity against adjuvant arthritis-induced po dosed Sprague-Dawley rat model assessed as decrease in pannus formation administered from day 21 to 36 post CFA injection and measured every 3 days by H and E staining method; format: functional, organism-based; details: dose 50-100 mg/kg, time 15.0 day, DDE = dose-dependent effect
[6] = Apparent volume of distribution in Sprague-Dawley rat at 1 mg/kg, iv; format: ADME, organism-based; details: in vivo, read-out: Vz
Rattus norvegicus [7] = assay: Antiarthritic activity against adjuvant arthritis-induced Sprague-Dawley rat model assessed as decrease in index score at 30 to 120 mg/kg, po administered from day 21 to 36 post CFA injection and measured every 3 days; format: functional, organism-based; details: dose 30-120 mg/kg, time 15.0 day
[8] = Metabolic stability in human liver microsome assessed as half life; format: ADME; details: liver microsomes
[9] = Oral bioavailability in Sprague-Dawley rat at 10 mg/kg; format: ADME, organism-based; details: in vivo
Rattus norvegicus [10] = assay: Antiarthritic activity against adjuvant arthritis-induced Sprague-Dawley rat model assessed as decrease in IL-6 level at 30 to 120 mg/kg, po administered from day 21 to 36 post CFA injection and measured every 3 days; format: functional, organism-based; details: dose 30-120 mg/kg, time 15.0 day
Rattus norvegicus [11] = assay: Antiarthritic activity against adjuvant arthritis-induced po dosed Sprague-Dawley rat model assessed as decrease in bone erosion of cartilage administered from day 21 to 36 post CFA injection and measured every 3 days by H and E staining method; format: functional, organism-based; details: dose 50-100 mg/kg, time 15.0 day, DDE = dose-dependent effect
[12] = AUC(0 to infinity) in Sprague-Dawley rat at 1 mg/kg, iv; format: ADME, organism-based; set-up: time infinity, dose 1 mg/kg, route iv; details: in vivo
[13] = Clearance in Sprague-Dawley rat at 1 mg/kg, iv; format: ADME, organism-based; details: in vivo
Mus musculus [14] = assay: Antiarthritic activity against collagen-induced arthritis DBA/1J mouse model assessed as decrease in IL-18 level at 50 to 100 mg/kg, ip administered from day 57 to 74 post CFA injection and measured every 3 days by immunohistochemical staining method; format: functional, organism-based; details: dose 50-100 mg/kg, time 17.0 day
Mus musculus [15] = assay: Antiarthritic activity against collagen-induced arthritis DBA/1J mouse model assessed as decrease in bone erosion at 100 mg/kg, ip administered from day 57 to 74 post CFA injection and measured every 3 days by H and E staining method; format: functional, organism-based; details: time 17.0 day
[16] = Metabolic stability in human liver microsome assessed as intrinsic clearance; format: ADME; details: microsomes
HeLa [17] = assay: Antiproliferative activity against human HeLa cells; format: functional, cell-based
[18] = Tmax in Sprague-Dawley rat at 10 mg/kg, po; format: ADME, organism-based; details: in vivo
[19] = molecular target: T1, Indoleamine 2,3-dioxygenase 2 (Homo sapiens, UniProt Q6ZQW0); assay: Inhibition of human IDO2
T1 sequence (Q6ZQW0 whole entry): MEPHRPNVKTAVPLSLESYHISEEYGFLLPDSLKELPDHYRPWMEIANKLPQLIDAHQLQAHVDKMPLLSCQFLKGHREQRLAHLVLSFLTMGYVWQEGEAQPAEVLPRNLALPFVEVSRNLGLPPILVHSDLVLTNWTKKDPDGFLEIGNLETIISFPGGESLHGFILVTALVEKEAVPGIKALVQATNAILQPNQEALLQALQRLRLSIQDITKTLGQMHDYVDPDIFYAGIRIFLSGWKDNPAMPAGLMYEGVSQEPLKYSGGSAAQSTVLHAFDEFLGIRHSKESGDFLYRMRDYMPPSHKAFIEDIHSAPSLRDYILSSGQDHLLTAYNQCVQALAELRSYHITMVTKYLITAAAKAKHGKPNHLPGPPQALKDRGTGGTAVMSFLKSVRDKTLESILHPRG

Mus musculus [20] = assay: Antiinflammatory activity against xylene-induced ear swelling ICR mouse model assessed as swelling rate at 100 mg/kg, IG measured after 1 hr (Activity = 58.21 +/- 12.79%); format: functional
Mus musculus [21] = assay: Antiarthritic activity against collagen-induced arthritis ip dosed DBA/1J mouse model assessed as paw swelling administered from day 57 to 74 post CFA injection and measured every 3 days; format: functional, organism-based; details: dose 25-100 mg/kg, time 17.0 day, DDE = dose-dependent effect
[22] = MRT (0 to infinity) in Sprague-Dawley rat at 1 mg/kg, iv; format: ADME, organism-based; details: in vivo
[23] = Metabolic stability in human liver microsome assessed as intrinsic permeability measured per mg of protein; format: ADME; details: microsomes
[24] = molecular target: T2, Indoleamine 2,3-dioxygenase 2 (Homo sapiens) (UniProt Q6ZQW0); assay: Inhibition of recombinant human IDO2 in HeLa cells at 100 nM relative to control; format: cell-based
T2 sequence (whole entry): T1 sequence (Q6ZQW0 whole entry)

Mus musculus [25] = assay: Antiarthritic activity against collagen-induced arthritis DBA/1J mouse model assessed as increase in cartilage at 100 mg/kg, ip administered from day 57 to 74 post CFA injection and measured every 3 days by H and E staining method; format: functional, organism-based; details: time 17.0 day
[26] = AUC(0 to infinity) in Sprague-Dawley rat at 10 mg/kg, po; format: ADME, organism-based; set-up: time infinity, dose 10 mg/kg, route po; details: in vivo
[27] = molecular target: T2, Indoleamine 2,3-dioxygenase 2 (Homo sapiens); assay: Inhibition of recombinant human IDO2 in HeLa cells at […] relative to control; format: cell-based
[28] = Half life in Sprague-Dawley rat at 1 mg/kg, iv; format: ADME, organism-based; details: in vivo
[29] = molecular target: T3, Indoleamine 2,3-dioxygenase 1 (Homo sapiens, UniProt P14902); assay: Inhibition of human IDO1
Target sequence in this assay (P14902 whole entry): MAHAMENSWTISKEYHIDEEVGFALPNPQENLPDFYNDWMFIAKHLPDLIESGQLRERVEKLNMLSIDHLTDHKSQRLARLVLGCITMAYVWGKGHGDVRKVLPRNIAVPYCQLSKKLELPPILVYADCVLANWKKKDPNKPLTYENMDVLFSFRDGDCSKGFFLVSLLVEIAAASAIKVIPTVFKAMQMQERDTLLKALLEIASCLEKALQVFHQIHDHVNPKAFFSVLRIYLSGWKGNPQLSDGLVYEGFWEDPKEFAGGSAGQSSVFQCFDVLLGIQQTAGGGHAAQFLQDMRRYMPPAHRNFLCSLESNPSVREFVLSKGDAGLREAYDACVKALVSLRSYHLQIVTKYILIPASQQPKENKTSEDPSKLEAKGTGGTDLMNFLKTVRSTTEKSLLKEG

Mus musculus [30] = assay: Antiinflammatory activity against xylene-induced ear swelling ICR mouse model assessed as swelling inhibition ratio at 100 mg/kg, IG measured after 1 hr; format: functional; set-up: scale not given: the % may be the effect or the level left
[31] = MRT (0 to infinity) in Sprague-Dawley rat at 10 mg/kg, po; format: ADME, organism-based; details: in vivo
[32] = Half life in Sprague-Dawley rat at 10 mg/kg, po; format: ADME, organism-based; details: in vivo
Mus musculus [33] = assay: Antiarthritic activity against collagen-induced arthritis DBA/1J mouse model assessed as decrease in inflammation at 100 mg/kg, ip administered from day 57 to 74 post CFA injection and measured every 3 days by H and E staining method; format: functional, organism-based; details: time 17.0 day
[34] = molecular target: T3, Indoleamine 2,3-dioxygenase 1; assay: Inhibition of recombinant human IDO1 in HeLa cells at 100 nM relative to control; format: cell-based
Target sequence in this assay (P14902 whole entry, looked up): as the sequence (P14902 whole entry) above

Mus musculus [35] = assay: Antiarthritic activity against collagen-induced arthritis DBA/1J mouse model assessed as paw swelling at 100 mg/kg, ip administered from day 57 to 74 post CFA injection and measured every 3 days; format: functional, organism-based; details: time 17.0 day
Rattus norvegicus [36] = assay: Antiarthritic activity against adjuvant arthritis-induced Sprague-Dawley rat model assessed as decrease in paw swelling at 30 to 120 mg/kg, po administered from day 21 to 36 post CFA injection and measured every 3 days; format: functional, organism-based; details: dose 30-120 mg/kg, time 15.0 day
Rattus norvegicus [37] = assay: Antiarthritic activity against adjuvant arthritis-induced po dosed Sprague-Dawley rat model assessed as decrease in inflammatory cell infiltration administered from day 21 to 36 post CFA injection and measured every 3 days by H and E staining method; format: functional, organism-based; details: dose 50-100 mg/kg, time 15.0 day, DDE = dose-dependent effect
HeLa [38] = assay: Antiproliferative activity against human HeLa cells at 5 uM; format: functional
[39] = molecular target: T1, Indoleamine 2,3-dioxygenase 2; assay: Inhibition of IDO2 (unknown origin)
[40] = molecular target: T3, Indoleamine 2,3-dioxygenase 1; assay: Inhibition of IDO1 (unknown origin)
Target sequence in this assay (P14902 whole entry): as above

Mus musculus [41] = assay: Antiarthritic activity against collagen-induced arthritis DBA/1J mouse model assessed as paw swelling at 15 mg/kg, ip administered from day 57 to 74 post CFA injection and measured every 3 days; format: functional, organism-based; details: time 17.0 day
[42] = molecular target: Tryptophan 2,3-dioxygenase (Homo sapiens, UniProt P48775); assay: Inhibition of TDO (unknown origin)
Chain of Tryptophan 2,3-dioxygenase (P48775 whole entry): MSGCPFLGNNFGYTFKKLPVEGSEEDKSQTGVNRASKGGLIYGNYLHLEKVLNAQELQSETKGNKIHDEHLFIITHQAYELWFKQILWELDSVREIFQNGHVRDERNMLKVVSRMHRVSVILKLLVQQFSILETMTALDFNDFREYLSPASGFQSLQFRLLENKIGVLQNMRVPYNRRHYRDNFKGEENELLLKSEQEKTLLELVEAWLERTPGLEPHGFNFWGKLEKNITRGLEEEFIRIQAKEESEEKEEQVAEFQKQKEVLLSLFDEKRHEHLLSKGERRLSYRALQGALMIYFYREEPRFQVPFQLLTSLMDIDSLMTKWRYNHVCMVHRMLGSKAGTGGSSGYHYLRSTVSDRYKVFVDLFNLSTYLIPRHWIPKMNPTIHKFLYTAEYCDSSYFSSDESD

O=C(NCc1cn(CCNc2nonc2/C(=N/O)NCc2cccc(Br)c2)nn1)c1ccccn1
Cmax [1]: 154 ng/mL | K [2]: 0.014 min⁻¹ | Activity (Rattus norvegicus [3]): Active | Activity (Mus musculus [4]): Active | Activity (Rattus norvegicus [5]): Dde | Vd [6]: 2.68 L/kg | Activity (Rattus norvegicus [7]): Active | half-life [8]: 49.5 min | bioavailability [9]: 17.9% | Activity (Rattus norvegicus [10]): Active | Activity (Rattus norvegicus [11]): Dde | AUC(0-inf) [12]: 375 ng·h/mL | clearance [13]: 44.5 mL/min/kg | Activity (Mus musculus [14]): Active | Activity (Mus musculus [15]): Active | CLH [16]: 0.056 mL/min | pEC50 (HeLa [17]): 6.20 | Tmax [18]: 45 min | pIC50 [19]: 6.95 | Activity (Mus musculus [20]): 20.19% | Activity (Mus musculus [21]): Dde | MRT inf [22]: 33 min | Pm [23]: 0.25 mL⁻¹ | inhibition [24]: 41% | Activity (Mus musculus [25]): Active | AUC(0-inf) [26]: 670 ng·h/mL | inhibition [27]: 97% | half-life [28]: 41.4 min | pIC50 [29]: 6.39 | Activity (Mus musculus [30]): 65.32% | MRT inf [31]: 449 min | half-life [32]: 121 min | Activity (Mus musculus [33]): Active | inhibition [34]: 26% | Activity (Mus musculus [35]): Active | Activity (Rattus norvegicus [36]): Active | Activity (Rattus norvegicus [37]): Dde

C[C@H](N/C(=N\O)c1nonc1NCCn1cc(CNC(=O)c2ccccn2)nn1)c1cccc(Br)c1
Activity (HeLa [38]): 17.87% | inhibition [27]: 15% | inhibition [34]: 3%

O=C(NCc1cn(CCNc2nonc2/C(=N/O)Nc2cccc(Br)c2)nn1)c1ccccn1
pEC50 (HeLa [17]): 7.19 | pIC50 [19]: 6.24 | inhibition [24]: 16% | inhibition [27]: 64% | pIC50 [29]: 7.43 | inhibition [34]: 71%

c1ccc(CCc2ccccc2-c2c[nH]nn2)cc1
pIC50 [39]: 4.29

C[C@H](N/C(=N\O)c1nonc1NCCn1cc(CNC(=O)c2ccc[nH]2)nn1)c1cccc(Br)c1
Activity (HeLa [38]): 22.74% | inhibition [27]: 15% | inhibition [34]: 14%

O=C(NCc1cn(CCNc2nonc2/C(=N/O)Nc2ccc(F)c(Br)c2)nn1)c1ccc[nH]1
pEC50 (HeLa [17]): 7.14 | pIC50 [19]: 6.87 | Activity (Mus musculus [20]): 27.84% | inhibition [24]: 51% | inhibition [27]: 86% | pIC50 [29]: 7.33 | Activity (Mus musculus [30]): 52.17% | inhibition [34]: 75%

O=C(NCc1cn(CCNc2nonc2/C(=N/O)Nc2ccc(F)c(Br)c2)nn1)c1ccccn1
pEC50 (HeLa [17]): 6.89 | pIC50 [19]: 6.41 | Activity (Mus musculus [20]): 36.71% | inhibition [24]: 39% | inhibition [27]: 61% | pIC50 [29]: 7.28 | Activity (Mus musculus [30]): 36.94% | inhibition [34]: 72%

COc1ccc2[nH]c([S+]([O-])Cc3ncc(C)c(OC)c3C)nc2n1 (centres undefined) [TENATOPRAZOLE]
pIC50 [39]: 5.74 | pIC50 [40]: < 4.00

C[C@@H]1CCN(C(=O)CC#N)C[C@@H]1N(C)c1ncnc2[nH]ccc12
Activity (Mus musculus [41]): Active

COc1ccc2cc([C@H](C)C(=O)O)ccc2c1 [NAPROXEN]
Activity (Mus musculus [20]): 31.85% | Activity (Mus musculus [30]): 45.29%

CN1CCN(c2ccc3nc4n(c(=O)c3c2)-c2ccc(F)cc2C4=O)CC1
pIC50 [42]: 6.12 | pIC50 [39]: 4.73 | pIC50 [40]: 6.30
